Data published in PMC7669869, “AdipoR1/AdipoR2 dual agonist recovers nonalcoholic steatohepatitis and related fibrosis via endoplasmic reticulum-mitochondria axis” (Nature Communications, 2020).
Several values for one entry are separate records, joined by “and”; a condition that tells them apart may be missing. Equal entries are not always repeated. Non-standard residues stand in square brackets, D forms with d. Residues, ends and D or L forms follow the SMILES beside them. Nva = CCC[C@H](N)C(=O)O

Experiments:
Assay type in all cases: in vivo, mouse
[1] = tested on: liver gene expression of CCl4 induced liver fibrosis mice; test: CCl4 mice: liver mRNA, quantitative RT-PCR; parameters: key to BAX liver mRNA / BID liver mRNA / UCP2 liver mRNA / DGAT1 liver mRNA / GSTM1 liver mRNA / GPX1 liver mRNA / HO-1 liver mRNA / XBP1 liver mRNA / ATF4 liver mRNA / GRP78 liver mRNA / BIM liver mRNA: mRNA expression normalized to β-actin reference gene; conditions: for BCL2 liver mRNA, relative expression (Apotosis), Supplementary Figure 16 / FAS liver mRNA, relative expression (Apotosis), Supplementary Figure 16: CCl4 + JT003 mice
Experimental: (§1) Male mice liver fibrosis was induced by intraperitoneal injection of 20% CCl4 (Sigma, USA) diluted in corn oil (Aladdin, China) every 3 days for 6 weeks (n = 6; 5 ml kg^−1 body weight). Mice injected with equivalent volume of corn oil serves as control group (n = 6). Liver fibrosis mice treated with JT003 for 3 weeks were used to evaluated the pharmacological effects (n = 6; 500 μg kg^−1; daily intraperitoneal injection).
Liver total RNA was extracted by using Trizol reagent following the manufacture’s instruction (TransGen Biotech, China). The concentration of RNA was measured by Nanodrop 2000 (ThermoFisher Scientific, USA). cDNA was transcribed from 10ug total RNA with First Strand cDNA synthesis Super Mix (TransGen Biotech, China). The cDNA was diluted 1/50 and 1.0 uL were used as a template for qPCR. qPCR was performed with SYBR Green qPCR Super Mix (TransGen Biotech, China) in the Light Cycler 480 Real-Time PCR System (Roche, Swiss). Reference gene β-actin was used for data normalization. mRNA expression was analyzed with specific primers listed in Supplementary Table 2.

[2] = tested on: liver gene expression of CCl4 induced liver fibrosis mice; test: CCl4 mice: liver RNAseq gene expression analysis; conditions: CCl4 + JT003 group
Experimental: as §1
The positive area of all stained liver slices was quantified by ImageJ (https://imagej.nih.gov/ij/). All data in this study were shown as the mean ± SEM (Standard Error). Student’s two-tailed t test was used to compare the mean of two groups of samples. All statistical analyses were performed with GraphPad Prism software (https://www.graphpad.com/). Significance was considered when p < 0.05. In RNAseq gene expression analysis, false discovery rate <0.01, q value <0.001. The confidence level was 95%.

[3] = tested on: CCl4 induced liver fibrosis mice; test: CCl4 mice: serum ALT, AST and liver HYP; conditions: Figure 5b; CCl4 + JT003 group; single animals, n = 5
[4] = tested on: HFD induced NASH mice; test: HFD mice: oral glucose tolerance test (OGTT); conditions: JT003 500 μg kg−1, in words
Experimental: Fasting blood glucose was measured using OneTouch UltraVue Blood Glucose Meter and test strips (Johnson&Johnson, USA) from tail nicks. After HFD fed for 14 weeks and JT003 treated for 2 weeks, oral glucose tolerance tests were performed on 8 h fasted mice. 0.5 g ml^−1 D-glucose solution (Sigma-Aldrich, USA) were oral injected to mice (2 g kg^−1 of bodyweight), blood glucose level was recorded at baseline, 15, 30, 60, 120 min

[5] = CCl4 fibrosis mice, liver, JT003 500 μg kg−1, in words
[6] = CCl4 mice, liver, JT003 500 μg kg−1, in words
[7] = Figure 7d left, CCl4 + JT003 group, single replicates, n = 6
[8] = Figure 7d right, CCl4 + JT003 group, single replicates, n = 6

CCC[C@H](NC(=O)[C@@H]1CCCN1)C(=O)N[C@@H](CC(C)C)C(=O)N[C@@H](Cc1ccc(O)cc1)C(=O)N[C@@H](Cc1ccc(O)cc1)C(=O)N[C@@H](Cc1ccccc1)C(=O)N[C@@H](C)C(N)=O [JT003] (H-P[Nva]LYYFA-NH2)
BCL2 liver mRNA, relative expression (Apotosis), Supplementary Figure 16 ([1]; replicate 1): 19.1929 | FAS liver mRNA, relative expression (Apotosis), Supplementary Figure 16 ([1]; replicate 1): 0.7337 | BCL2 liver mRNA, relative expression (Apotosis), Supplementary Figure 16 ([1]; replicate 2): 9.563 | FAS liver mRNA, relative expression (Apotosis), Supplementary Figure 16 ([1]; replicate 2): 0.7492 | BCL2 liver mRNA, relative expression (Apotosis), Supplementary Figure 16 ([1]; replicate 3): 15.2158 | FAS liver mRNA, relative expression (Apotosis), Supplementary Figure 16 ([1]; replicate 3): 0.6522 | BCL2 liver mRNA, relative expression (Apotosis), Supplementary Figure 16 ([1]; replicate 4): 10.7592 | FAS liver mRNA, relative expression (Apotosis), Supplementary Figure 16 ([1]; replicate 4): 0.5898 | TGFβ, CTGF, IL-6, TNFα and IL-1β (HSCs activation) [1, 5]: all suppressed | expression of genes related to ECM accumulation (TIMP1, MMP3 and MMP8) [1, 5]: decreased | genes involved in ECM elimination (MMP2, MMP9 and MMP13) [1, 5]: notably upregulated | ER-Stress related genes (XBP1, ATF4, GRP78 and BIM) ([1]; CCl4 induced fibrosis mice, liver, JT003 500 μg kg−1, in words): remarkably suppressed | anti-apoptotic BCL2 (RT-PCR) [1, 6]: significantly improved | apoptosis-related FAS (RT-PCR) [1, 6]: reduced | ATF4 liver mRNA [1, 7]: 1.16 and 0.7959 and 1.086 (2×) and 0.9357 and 1.157 | BIM liver mRNA [1, 7]: 0.2472 and 0.8351 and 0.6258 and 0.6305 and 0.5305 and 0.5258 | GRP78 liver mRNA [1, 7]: 0.8253 and 1.201 and 1.072 (2×) and 0.9986 and 0.797 | XBP1 liver mRNA [1, 7]: 2.911 and 0.8961 and 1.2156 (2×) and 1.656 and 1.136 | DGAT1 liver mRNA ([1]; Figure 7d right, CCl4 + JT003 group, single replicates, 5 values): 0.8433 and 1.099 and 1.191 and 0.9141 and 2.738 | BAX liver mRNA [1, 8]: 1.955 and 0.8137 and 1.744 and 0.6724 and 1.0479 and 1.373 | BID liver mRNA [1, 8]: 1.296 and 0.8034 and 0.6436 and 0.8394 and 0.9828 and 0.9284 | GPX1 liver mRNA [1, 8]: 0.4793 and 0.5322 and 0.6634 and 0.7144 and 0.5138 and 0.7293 | GSTM1 liver mRNA [1, 8]: 0.3771 and 0.1875 and 0.195 and 1.014 and 0.3719 and 0.9044 | HO-1 liver mRNA [1, 8]: 1.179 and 1.19 and 1.314 and 1.134 and 1.372 and 1.274 | PGC1a liver mRNA [1, 8]: 1.328 and 1.046 and 1.167 and 1.184 and 1.337 and 1.083 | PGC1b liver mRNA [1, 8]: 1.159 and 2.677 and 4.191 and 3.928 and 2.638 and 2.374 | UCP2 liver mRNA [1, 8]: 0.9325 and 1.681 and 1.172 and 0.7627 and 0.8293 and 0.6383 | Akr1c18 liver RNAseq expression ([2]; Figure 6c): 0.1038 | Bco1 liver RNAseq expression ([2]; Figure 6c): 0.5514 | Brca1 liver RNAseq expression ([2]; Figure 6c): -0.5686 | C3ar1 liver RNAseq expression ([2]; Figure 6c): -0.04576 | C5ar1 liver RNAseq expression ([2]; Figure 6c): -0.1308 | Ccl9 liver RNAseq expression ([2]; Figure 6c): 1.215 | Cxcl1 liver RNAseq expression ([2]; Figure 6c): 1.2887 | Fbn1 liver RNAseq expression ([2]; Figure 6c): -0.3979 | Fbn2 liver RNAseq expression ([2]; Figure 6c): -1.301 | Nupr1 liver RNAseq expression ([2]; Figure 6c): 0.5866 | Ptges liver RNAseq expression ([2]; Figure 6c): -0.4949 | Rdh11 liver RNAseq expression ([2]; Figure 6c): 0.8089 | Robo1 liver RNAseq expression ([2]; Figure 6c): -0.03152 | Xcr1 liver RNAseq expression ([2]; Figure 6c): -0.1135 | Alg8 liver RNAseq expression ([2]; Figure 7c): 0.5944 | Anxa5 liver RNAseq expression ([2]; Figure 7c): 1.645 | Atp2b2 liver RNAseq expression ([2]; Figure 7c): -0.4202 | Atp7b liver RNAseq expression ([2]; Figure 7c): 0.2148 | Ces3b liver RNAseq expression ([2]; Figure 7c): 2.066 | Creb3l2 liver RNAseq expression ([2]; Figure 7c): 0.1072 | Dhrs9 liver RNAseq expression ([2]; Figure 7c): -0.6021 | Elovl3 liver RNAseq expression ([2]; Figure 7c): 0.433 | Fitm1 liver RNAseq expression ([2]; Figure 7c): -0.3372 | Fmo2 liver RNAseq expression ([2]; Figure 7c): 0.8831 | Fndc5 liver RNAseq expression ([2]; Figure 7c): -0.7212 | Grik5 liver RNAseq expression ([2]; Figure 7c): 0.5888 | Mia2 liver RNAseq expression ([2]; Figure 7c): 0.7875 | Myo5a liver RNAseq expression ([2]; Figure 7c): -0.7959 | Nat8f5 liver RNAseq expression ([2]; Figure 7c): 0.6064 | Nsdhl liver RNAseq expression ([2]; Figure 7c): 0.8949 | Nucb2 liver RNAseq expression ([2]; Figure 7c): 0.4814 | Pdilt liver RNAseq expression ([2]; Figure 7c): 0.5899 | Pkmyt1 liver RNAseq expression ([2]; Figure 7c): 0.09691 | Prom1 liver RNAseq expression ([2]; Figure 7c): -0.03152 | Serpina1e liver RNAseq expression ([2]; Figure 7c): 3.324 | Slc37a2 liver RNAseq expression ([2]; Figure 7c): -0.4559 | Soat1 liver RNAseq expression ([2]; Figure 7c): -0.1079 | Sorl1 liver RNAseq expression ([2]; Figure 7c): -0.8539 | Srd5a2 liver RNAseq expression ([2]; Figure 7c): -0.09691 | Trim59 liver RNAseq expression ([2]; Figure 7c): -0.4949 | Zdhhc2 liver RNAseq expression ([2]; Figure 7c): -0.3468 | Adamts5 liver RNAseq expression ([2]; Figure 5d): -0.4318 | Adamtsl1 liver RNAseq expression ([2]; Figure 5d): -0.9208 | Anxa2 liver RNAseq expression ([2]; Figure 5d): 1.107 | Ckap4 liver RNAseq expression ([2]; Figure 5d): -0.05061 | Col1a1 liver RNAseq expression ([2]; Figure 5d): 0.8745 | Col1a2 liver RNAseq expression ([2]; Figure 5d): 0.934 | Col3a1 liver RNAseq expression ([2]; Figure 5d): 1.043 | Col6a3 liver RNAseq expression ([2]; Figure 5d): 0.1367 | Lgals3 liver RNAseq expression ([2]; Figure 5d): 0.941 | Lpl liver RNAseq expression ([2]; Figure 5d): 1.015 | Ltbp2 liver RNAseq expression ([2]; Figure 5d): -0.2757 | Mmp12 liver RNAseq expression ([2]; Figure 5d): -0.1805 | Nid1 liver RNAseq expression ([2]; Figure 5d): 0.5877 | Nid2 liver RNAseq expression ([2]; Figure 5d): 0.03342 | Npnt liver RNAseq expression ([2]; Figure 5d): -1.222 | Serpine2 liver RNAseq expression ([2]; Figure 5d): 0.143 | Slpi liver RNAseq expression ([2]; Figure 5d): 0.6998 | Tubb4b liver RNAseq expression ([2]; Figure 5d): 1.687 | alt Enzymatic Activity [3]: 182.294 U/L and 119.931 U/L and 31.0646 U/L and 95.3544 U/L and 50.0405 U/L | HFD-induced insulin resistance, oral glucose tolerance test [4]: obviously ameliorated
